From PMC8306578, “[^68Ga]Ga-DFO-c(RGDyK): Synthesis and Evaluation of Its Potential for Tumor Imaging in Mice” (International Journal of Molecular Sciences, 2021) come the findings set out here.

Read-outs that look alike come from different tables or passages of the source.

Usually logP stands for a log measure of how a compound divides between an organic and an aqueous phase. By tissue uptake is commonly meant the share of the injected amount in each gram of the tissue.

Series [1] is classed as physicochemical. To be noted: pH 7.4. The protocol: Aliquots of 50 μL were added to 450 μL PBS and 500 μL octanol, and the mixture was vigorously vortexed for 20 min at 1500 rpm. The aqueous and organic solvents were separated by centrifugation (2 min at 2000× g), and 50 μL aliquots of both layers were collected and measured in a gamma counter (PerkinElmer, Waltham, MA, USA). Log p values were calculated from the obtained data in Microsoft Office Excel 2010 (Microsoft, Redmond WA, USA) (mean of n = 6).

Another series deals with U-87 MG cells. Description: Cell uptake assay in U-87 MG cells. Format: cell-based, human. The settings on record: 7 nM tracer, 500-fold excess (3.5 µM) inhibitor, 30-90 min, 37 °C. The method, then: (§1) Human glioblastoma multiforme U-87 MG cells (ATCC, Manassas, VA, USA) were cultured in Dulbecco’s Modified Eagle Medium (Merck, Darmstadt, Germany) supplemented with 10% fetal bovine serum, 0.1 mM non-essential amino acids, and 1.0 mM sodium pyruvate at 37 °C in a 5% carbon dioxide humidified incubator. Human melanoma cell lines M21 (fluorescence-activated cell sorting selected clone, which stably express αvβ3 integrin; αvβ3 integrin-positive) and M21-L (αvβ3 integrin-negative) originated from prof. Cheresh, Departments of Immunology and Vascular Biology, The Scripps Research Institute, La Jolla, CA, USA and were a kind gift of prof. Decristoforo, Department of Nuclear Medicine, Medical University Innsbruck, Austria. Both M21 and M21-L cells were cultured in Dulbecco’s Modified Eagle Medium (Merck, Darmstadt, Germany) supplemented with 10% fetal bovine serum. All the cells were subcultured and used for experiments at a confluency of 70–90%. Cell uptake assays were performed in 24-well plates cell at cellular confluency of 70–90%. […] Afterwards, the 24-well plates were rinsed with PBS and the cells were lysed by 0.1 M NaOH and measured for radioactivity in the gamma counter. The uptake of [^68Ga]Ga-DFO-c(RGDyK) was calculated as the mean of the percentage of the applied dose ± standard deviation.

The subject of another series is M21 cells. The experiment in a line: Cell uptake assay in M21 (αvβ3-positive) cells. In kind it is cell-based, human. To be noted: 7 nM tracer, 500-fold excess (3.5 µM) inhibitor, 60 min, 37 °C. The method, then:
as §1

For series [2] the following is noted: mouse, in vivo. The protocol:
The animal studies were performed using female 8–10-week-old Balb/c and athymic Balb/c nude mice (Envigo, Horst, The Netherlands). The animals were acclimatized to laboratory conditions for 1 week prior to experimental use and housed in a specific-pathogen-free animal facility with free access to animal chow and water. During the experiments, general health and body weight of the animals were monitored. The number of animals was reduced as much as possible (n = 3 per group and time point) for all in vivo experiments. The tracer injection as well as small animal imaging was carried out under 2% isoflurane anesthesia (FORANE, Abbott Laboratories, Abbott Park, IL, USA) to minimize animal suffering and to prevent animal motion. […] The animals were sacrificed by cervical dislocation at 30 and 90 min post-injection (p.i.). Organs and tissues of interest (blood, spleen, pancreas, stomach, intestines, kidneys, liver, heart, lung, muscle, bone, and tumor) were collected, weighed, and measured in the gamma counter. The results were expressed as percentage of injected dose per gram organ (% ID/g).

On the set-up of series [3]: dose or concentration left out as unconfirmed. To be noted: mouse, in vivo. The protocol: (§2) The animal studies were performed using female 8–10-week-old Balb/c and athymic Balb/c nude mice (Envigo, Horst, The Netherlands). The animals were acclimatized to laboratory conditions for 1 week prior to experimental use and housed in a specific-pathogen-free animal facility with free access to animal chow and water. During the experiments, general health and body weight of the animals were monitored. The number of animals was reduced as much as possible (n = 3 per group and time point) for all in vivo experiments. […]
(§3) For animal tumor models, athymic Balb/c nude mice were subcutaneously injected in the right flank with 5 × 10^6 U-87 MG cells mixed with Matrigel Matrix (Corning, NY, USA) at a 1:1 ratio or in the right and left flank with 5 × 10^6 M21 and M21-L cells. Tumor growth was continuously monitored by caliperation. […]
The animals were sacrificed by cervical dislocation at 30 and 90 min post-injection (p.i.). Organs and tissues of interest (blood, spleen, pancreas, stomach, intestines, kidneys, liver, heart, lung, muscle, bone, and tumor) were collected, weighed, and measured in the gamma counter. The results were expressed as percentage of injected dose per gram organ (% ID/g).

The next series deals with U-87 MG tumor. Description: Static PET/CT imaging in U-87 MG tumor-bearing Balb/c nude mice. In kind it is in vivo, mouse. To be noted: U-87 MG tumor mice, 30 and 90 min p.i. The protocol: as §2, §3
(§4) PET/CT imaging of the experimental animals was performed with an Albira PET/SPECT/CT small animal imaging system (Bruker Biospin Corporation, Woodbridge, CT, USA). […] After reconstruction, the acquired data was viewed and analyzed with the appropriate software (PMOD software, PMOD Technologies Ltd., Zurich, Switzerland and VolView software, Kitware, Clifton Park, NY, USA).

The next series has as its system M21 tumor. The experiment in a line: Static PET/CT imaging in M21 (αvβ3-positive) xenografted Balb/c nude mice. The settings on record: αvβ3 integrin-positive (M21) tumor tissue, 30 and 90 min p.i. In kind it is in vivo, mouse. The protocol: as §2, §3, §4
The test system of the next series is M21-L tumor. The experiment in a line: Static PET/CT imaging in M21-L (αvβ3-negative) xenografted Balb/c nude mice. In kind it is in vivo, mouse. To be noted: αvβ3 integrin-negative (M21-L) tumor tissue, 30 and 90 min p.i. The protocol:
as §2, §3, §4

Compound `CC(=O)N(O)CCCCCNC(=O)CCC(=O)N(O)CCCCCNC(=O)CCC(=O)N(O)CCCCCNC(=S)Nc1ccc(NC(=S)NCCCC[C@@H]2NC(=O)[C@@H](Cc3ccc(O)cc3)NC(=O)[C@H](CC(=O)O)NC(=O)CNC(=O)[C@H](CCCNC(=N)N)NC2=O)cc1` [[^68Ga]Ga-DFO-c(RGDyK), metal not drawn] returned a logP in series [1] of -2.01 ± 0.08. Further, the “Blocking of cell uptake by excess cold NODAGA-c(RGDyK)” value in the series on U-87 MG cells is given as “could be blocked with NODAGA-c(RGDyK) by about half”; with M21 cells it was “could only be blocked for the αvβ3-positive cells (M21)”. In addition, the tissue uptake at 1.5 h in series [2] (Activity concentration in intestines) turned out to be 1.99 ± 0.01 %ID/g; in series [2] (Activity concentration in kidneys), 5.31 ± 0.12 %ID/g; in series [2] (Activity concentration in stomach), 1.78 ± 0.05 %ID/g; in series [3] it was 1.54 ± 0.56 %ID/g. The tissue uptake at 0.5 h in series [3] is 3.03 ± 0.62 %ID/g. Besides, in the series on U-87 MG tumor, the PET/CT tumor visualization result is “clearly visualizing the tumor”. Besides, the values for the PET/CT tumor uptake entry in the series on M21 tumor and in the series on M21-L tumor were “specific uptake of the radiotracer” and “no uptake was observed”, respectively.
